# Results reported in US8138153B2, “Potassium channel modulator peptide” (National Centre for Biological Sciences, priority 2004, dated 2012).
# Test system: K^+ currents (voltage dependent potassium channels) in DRG neurons
# Assay type: cell-based, Wistar rats
substance,measurement,value
FHGGSWYRFPWGY-NH2 [Mo1659],Effect on fast transient K^+ current component,not significantly affected
